The record followed here is patent US9113629B2, “4-amino-6-(4-substituted-phenyl)-picolinates and 6-amino-2-(4-substituted-phenyl)-pyrimidine-4-carboxylates and their use as herbicides” (DOW AGROSCIENCES LLC, priority 2013, dated 2015).

SMILES strings stand for the structures.

In test [1] the test system is PAPRH: common poppy (Papaver rhoeas). As to the kind of experiment: Post-emergent Test III, herbicidal activity in wheat and barley. Format: in vivo. The following applies: for pest or weed control at 35 g/ha / pest or weed control at 70 g/ha / pest or weed control at 140 g/ha: Papaver rhoeas, post-emergence, 504 h, read-out: Visual Growth Reduction (%) 21 Days After Application PAPRH; for pest or weed control at 35 g/ha: 35 g ai/ha; for pest or weed control at 70 g/ha: 70 g ai/ha; for pest or weed control at 140 g/ha: 140 g ai/ha; for GR50 PAPRH / GR80 PAPRH: probit analysis, 21 days after application; for GR50 PAPRH: dose for growth reduction of 50 percent; for GR80 PAPRH: dose for growth reduction of 80 percent. The gist of the method: (§1)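 Plants at the second to third true-leaf stage, grown in a greenhouse at about 18/17 °C with a 14 h photoperiod, were sprayed post-emergence at 187 L/ha with the high rate and ½× to 1/16× serial dilutions in an acetone/DMSO/crop-oil/surfactant carrier. Injury was rated visually at 21 d on a 0–100% scale, and GR20–GR90 were derived by probit analysis.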

In test [2] the test system is BROTE: downy brome (Bromus tectorum). The description is as above. The following applies: for pest or weed control at 35 g/ha / pest or weed control at 70 g/ha / pest or weed control at 140 g/ha: Bromus tectorum, post-emergence, 504 h, read-out: Visual Growth Reduction (%) 21 Days After Application BROTE; for pest or weed control at 35 g/ha: 35 g ai/ha; for pest or weed control at 70 g/ha: 70 g ai/ha; for pest or weed control at 140 g/ha: 140 g ai/ha; for GR50 BROTE / GR80 BROTE: probit analysis, 21 days after application; for GR50 BROTE: dose for growth reduction of 50 percent; for GR80 BROTE: dose for growth reduction of 80 percent. Format: in vivo. In outline:
as §1

Consider `Nc1c(F)c(-c2ccc(I)cc2)nc(C(=O)O)c1Cl` [Compound 45, 4-amino-3-chloro-5-fluoro-6-(4-iodophenyl)picolinic acid], for which, in test [1], the pest or weed control at 35 g/ha fell in the range of 95 to 100%, the pest or weed control at 70 g/ha was 95 to 100%, the pest or weed control at 140 g/ha lay within 95 to 100% and the “GR50 PAPRH” value was found to be 1 g ai/ha. Moreover, the “GR80 PAPRH” value in test [1] amounted to 1 g ai/ha. In test [2], the pest or weed control at 35 g/ha is 85 to 94%, the pest or weed control at 70 g/ha was in the range of 85 to 94%, the pest or weed control at 140 g/ha is 95 to 100% and the “GR50 BROTE” value is reported as 13 g ai/ha. Further, the “GR80 BROTE” value in test [2] is on record as 36 g ai/ha.

With `COC(=O)c1nc(-c2ccc(Br)cc2)c(F)c(N)c1Cl` [Compound 138, Methyl 4-amino-6-(4-bromophenyl)-3-chloro-5-fluoropicolinate], in test [1], the pest or weed control at 35 g/ha is 95 to 100%, the pest or weed control at 70 g/ha lay in the range of 95 to 100%, the pest or weed control at 140 g/ha was 95 to 100% and the “GR50 PAPRH” value worked out at 1 g ai/ha. The “GR80 PAPRH” value in test [1] came to 1 g ai/ha. Moreover, in test [2], the pest or weed control at 35 g/ha was in the range of 75 to 84%, the pest or weed control at 70 g/ha lay in the range of 85 to 94%, the pest or weed control at 140 g/ha lay in the range of 85 to 94% and the “GR50 BROTE” value is listed as 12 g ai/ha. For the same molecule, the “GR80 BROTE” value in test [2] came to 42 g ai/ha.
